Values joined by “and” are separate entries in the source; they are usually repeats but may differ in a detail not shown here. Equal values may be shown once.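 Each compound was tested at five concentrations against cells in 96-well plates for 48 hours. At the GI50, growth is halved.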 Active and inactive are the calls of the source. Cut-off read from the data, not from the text of the source: active = GI50 up to about 1.1 µM and inactive = higher.
Tests used:
Experiment in all cases: NCI-60 cell line screen, 48 h
ACHN = system: ACHN
SW-620 = system: SW-620
SK-MEL-5 = system: SK-MEL-5
HOP-92 = system: HOP-92
OVCAR-4 = system: OVCAR-4
U-251 = system: U-251
TK-10 = system: TK-10
HCC 2998 = system: HCC 2998
HL-60 = system: HL-60
SNB-19 = system: SNB-19
EKVX = system: EKVX
SK-OV-3 = system: SK-OV-3
HCT-15 = system: HCT-15
A498 = system: A498
KM12 = system: KM12
SK-MEL-28 = system: SK-MEL-28
A549 = system: A549
RXF 393 = system: RXF 393
MCF7 = system: MCF7
UACC-257 = system: UACC-257
OVCAR-3 = system: OVCAR-3
MDA-MB-435 = system: MDA-MB-435
OVCAR-5 = system: OVCAR-5
SF-539 = system: SF-539
SR = system: SR
UACC-62 = system: UACC-62
IGROV-1 = system: IGROV-1
HCT-116 = system: HCT-116
M14 = system: M14
MOLT-4 = system: MOLT-4
CCRF-CEM = system: CCRF-CEM
LOX IMVI = system: LOX IMVI
SK-MEL-2 = system: SK-MEL-2
UO-31 = system: UO-31
SF-295 = system: SF-295
COLO 205 = system: COLO 205
DU-145 = system: DU-145
K562 = system: K562
786-0 = system: 786-0
SN12C = system: SN12C
T47D = system: T47D
MDA-MB-231 = system: MDA-MB-231
BT-549 = system: BT-549
Malme-3M = system: Malme-3M
HT-29 = system: HT-29
MDA-N = system: MDA-N
NCI-H522 = system: NCI-H522
NCI-H460 = system: NCI-H460
Hs-578T = system: Hs-578T
HOP-62 = system: HOP-62
NCI/ADR-RES = system: NCI/ADR-RES
CAKI-1 = system: CAKI-1
RPMI-8226 = system: RPMI-8226
NCI-H23 = system: NCI-H23
OVCAR-8 = system: OVCAR-8
PC-3 = system: PC-3
SF-268 = system: SF-268

## O=c1c2cc(Br)ccc2ncn1COCc1ccccc1
ACHN
  GI50: 23.8 µM (inactive)
SW-620
  GI50: > 100 µM (inactive)
SK-MEL-5
  GI50: 31 µM (inactive)
HOP-92
  GI50: > 100 µM (inactive)
OVCAR-4
  GI50: > 100 µM (inactive)
U-251
  GI50: > 100 µM (inactive)
TK-10
  GI50: 96.6 µM (inactive)
HCC 2998
  GI50: > 100 µM (inactive)
HL-60
  GI50: > 10 µM (inactive)
SNB-19
  GI50: 45.6 µM (inactive)
EKVX
  GI50: 88.3 µM (inactive)
SK-OV-3
  GI50: > 100 µM (inactive)
HCT-15
  GI50: 64 µM
A498
  GI50: > 100 µM (inactive)
KM12
  GI50: 52.6 µM (inactive)
SK-MEL-28
  GI50: > 100 µM (inactive)
A549
  GI50: 52.1 µM (inactive)
RXF 393
  GI50: 51.5 µM (inactive)
MCF7
  GI50: 37.1 µM (inactive)
UACC-257
  GI50: > 100 µM (inactive)
OVCAR-3
  GI50: > 100 µM (inactive)
MDA-MB-435
  GI50: > 100 µM (inactive)
OVCAR-5
  GI50: > 100 µM (inactive)
SF-539
  GI50: > 100 µM (inactive)
SR
  GI50: 56.5 µM (inactive)
UACC-62
  GI50: 80.5 µM (inactive)
IGROV-1
  GI50: 56.2 µM (inactive)
HCT-116
  GI50: 61.8 µM (inactive)
M14
  GI50: 97.7 µM (inactive)
MOLT-4
  GI50: 42.8 µM (inactive)
CCRF-CEM
  GI50: 71 µM (inactive)
LOX IMVI
  GI50: 38.7 µM (inactive)
SK-MEL-2
  GI50: > 100 µM (inactive)
UO-31
  GI50: 24.1 µM (inactive)
SF-295
  GI50: > 100 µM (inactive)
COLO 205
  GI50: 93.8 µM (inactive)
DU-145
  GI50: > 100 µM (inactive)
K562
  GI50: 54.6 µM (inactive)
786-0
  GI50: 70.3 µM (inactive)

## C=CCN1C(=O)/C(=C/c2ccc(C)cc2)N=C1SC1OC(COC(C)=O)C(OC(C)=O)C(OC(C)=O)C1OC(C)=O (stereo not drawn)
SN12C
  GI50: > 100 µM (inactive)
OVCAR-4
  GI50: 7.83 µM (inactive)
TK-10
  GI50: > 100 µM (inactive)
HL-60
  GI50: > 76.4 µM (inactive)
T47D
  GI50: 14.4 µM (inactive)
MDA-MB-231
  GI50: 28.7 µM (inactive) and 27.5 µM (inactive)
SNB-19
  GI50: > 100 µM (inactive)
EKVX
  GI50: 51.8 µM (inactive)
BT-549
  GI50: 25.3 µM (inactive) and 23.3 µM (inactive)
SK-MEL-28
  GI50: > 100 µM (inactive)
A549
  GI50: > 100 µM (inactive)
RXF 393
  GI50: 11.6 µM (inactive) and 8.43 µM (inactive)
MCF7
  GI50: 39.4 µM (inactive) and 34.8 µM (inactive)
OVCAR-5
  GI50: 53.2 µM (inactive) and > 82.8 µM (inactive)
Malme-3M
  GI50: 39.2 µM (inactive)
HCT-116
  GI50: 34.1 µM (inactive)
M14
  GI50: 68.7 µM (inactive)
SF-295
  GI50: 60.1 µM (inactive)
COLO 205
  GI50: 59.4 µM (inactive)
DU-145
  GI50: 33.9 µM (inactive) and > 45.3 µM (inactive)
HT-29
  GI50: > 100 µM (inactive)
786-0
  GI50: 3.4 µM (inactive)
MDA-N
  GI50: > 100 µM (inactive)

## Cc1c(C)c2ccc(OCC(O)COC(C)C)c(C)c2oc1=O (stereo not drawn)
ACHN
  GI50: 44.3 µM (inactive)
SW-620
  GI50: 29.4 µM (inactive)
SK-MEL-5
  GI50: 16.4 µM (inactive)
HOP-92
  GI50: 33.2 µM (inactive)
OVCAR-4
  GI50: > 10 µM (inactive)
U-251
  GI50: 16.2 µM (inactive)
TK-10
  GI50: 25.1 µM (inactive)
NCI-H522
  GI50: 17.2 µM (inactive)
HCC 2998
  GI50: 24.8 µM (inactive)
HL-60
  GI50: 35 µM (inactive)
NCI-H460
  GI50: 16.7 µM (inactive)
T47D
  GI50: > 100 µM (inactive)
SNB-19
  GI50: 57.5 µM (inactive)
Hs-578T
  GI50: 31.7 µM (inactive)
EKVX
  GI50: 45.5 µM (inactive)
HOP-62
  GI50: 28.7 µM (inactive)
SK-OV-3
  GI50: > 100 µM (inactive)
KM12
  GI50: 56.1 µM (inactive)
NCI/ADR-RES
  GI50: 41.5 µM (inactive)
SK-MEL-28
  GI50: 34 µM (inactive)
A549
  GI50: 34.7 µM (inactive)
MCF7
  GI50: 24.4 µM (inactive)
UACC-257
  GI50: 19.8 µM (inactive)
CAKI-1
  GI50: 41.7 µM (inactive)
OVCAR-3
  GI50: > 100 µM (inactive)
OVCAR-5
  GI50: 39.1 µM (inactive)
SR
  GI50: 26.7 µM (inactive)
RPMI-8226
  GI50: 21.4 µM (inactive)
UACC-62
  GI50: 38.5 µM (inactive)
IGROV-1
  GI50: 70.6 µM (inactive)
Malme-3M
  GI50: 16.2 µM (inactive)
HCT-116
  GI50: 18.5 µM (inactive)
M14
  GI50: 20.8 µM (inactive)
MOLT-4
  GI50: > 10 µM (inactive)
CCRF-CEM
  GI50: 27.5 µM (inactive)
LOX IMVI
  GI50: 18.7 µM (inactive)
SK-MEL-2
  GI50: 20.1 µM (inactive)
UO-31
  GI50: 41.8 µM (inactive)
NCI-H23
  GI50: 91.6 µM (inactive)
SF-295
  GI50: 23.5 µM (inactive)
OVCAR-8
  GI50: 28.2 µM (inactive)
COLO 205
  GI50: > 10 µM (inactive)
DU-145
  GI50: > 100 µM (inactive)
HT-29
  GI50: 31 µM (inactive)
PC-3
  GI50: 45.2 µM (inactive)
K562
  GI50: 25.4 µM (inactive)
SF-268
  GI50: > 100 µM (inactive)
786-0
  GI50: > 10 µM (inactive)
MDA-N
  GI50: 17.7 µM (inactive)

## CC(=O)OCC1OC(n2c(=S)n(-c3ccc(C)cc3)c(=O)c3ccccc32)C(OC(C)=O)C(OC(C)=O)C1OC(C)=O (stereo not drawn)
HOP-92
  GI50: 31.6 µM (inactive) and 30.4 µM (inactive)
TK-10
  GI50: 29 µM (inactive)
RXF 393
  GI50: 83 µM (inactive) and 67 µM (inactive)
SR
  GI50: 23.7 µM (inactive)
RPMI-8226
  GI50: 86.3 µM (inactive) and 49.1 µM (inactive)
MOLT-4
  GI50: 65.3 µM (inactive)
UO-31
  GI50: 62.4 µM (inactive) and 58.1 µM (inactive)

Reference: ChEMBL document CHEMBL1201862, “PubChem BioAssay data set” (2004)
